{"source": "paper PMC12248599", "about": "“Exploring the Bioavailability of Red Grape Skin Extract Polyphenols: A Caco-2 Cell Model Study” (Foods, 2025)", "key": {"Caco-2 cell monolayer": {"test_system": "Caco-2 cell monolayer", "experiment": "Caco-2 monolayer transport (bioavailability) study, AB and BA directions", "type": "in vitro ADME, Homo sapiens", "conditions": "for TE (%) transport efficiency: after 180 min", "procedure": "(§1) A reversed phase C18 column (Luna 5 μm C18(2) 100 Å, LC Column 250 × 4.6 mm, Phenomenex) was used to separate the polyphenols at a flow rate of 0.7 mL/min with an injection volume of 60 µL. The detection was carried out at 520 nm for anthocyanins (M3G, D3G and Pet3G), at 328 nm for CA, at 356 nm for flavonols (Q3G, K3Gal and K3G) and at 280 nm for GA and SA. The mobile phases were (A) acetonitrile 100% and (B) water 0.1% trifluoroacetic acid (v/v). The gradient was programmed as follows: 10% A 0 min, 10–80% A (0–20 min), 80–100% A (20–25 min), 100% A (25–30 min); 10% A (30–35 min) and 10% A (35–40 min). Every polyphenol was quantified using the corresponding reference standard calibration curve. Each of the quantified phenolic compound concentration was expressed as mg/mL\n(§2) For the transport experiment Caco-2 cells were cultured at a density of 4 × 10^4 cells/cm^2 in Transwell inserts (12 mm i.d., 1.12 cm^2 growth area, 0.4 µm mean pore size polycarbonate membranes, Corning Inc., Milwaukee, WI, USA) placed in 12-well plates. Caco-2 cells were grown in DMEM in an incubator at 37 °C in a humidified atmosphere containing 5% CO2.\n(§3) Bioavailability studies were performed in triplicate after 21 days of cell growth. Only inserts with stable TEER values higher than ≥300 Ω cm^2 were considered acceptable to perform the bioavailability study. For that purpose, DMEM media was removed, the monolayer was washed with PBS and HBSS was supplied to the cells.\n(§4) Likewise, the GSE stock solution was diluted in HBSS medium to prepare GSE solutions S1 and S2. GSE solutions S1 and S2 had concentrations of 15 mg/mL and 22 mg/mL, respectively. These concentrations were established considering previous studies with grape pomace extracts that concluded that intestinal concentrations of 1–2% (w/v) show potential bioactivities and are safe to be used as a food ingredient.\n(§5) The apical side represents the intestinal lumen and the basolateral side represents the bloodstream. Each sample (100 µL) was immediately acidified with 1M HCl to a final concentration of 0.007 M and subsequently frozen at −20 °C until analysis by HPLC (according to the method described in Section 2.5). Each experiment was carried out on 3 individual wells. The transport efficiency (TE) percentage was calculated according to Equation (2):Transport efficiency (%) = (C/C0) × 100(2) where, C is the polyphenol concentration at the acceptor side over time and C0 is the initial concentration at the donor side. TE values were calculated for the nine polyphenols identified in the grape skin extract.\n(§6) The apparent permeability coefficient (Papp) of the polyphenols in GSE was calculated for apical to basolateral side (AB) and basolateral to apical side (BA) flux studies according to Equation (3):Papp (cm/s) = (dQ/dt) × (VR/AC0)(3) where, dQ/dt is the permeability rate which means the steady-state linear rate of change of concentration (mg/L) per second (s) at the acceptor side; A is the surface area of the cell monolayer (1.12 cm^2). C0 is the initial concentration at the donor side (mg/L) at t = 0 s and VR is the volume of the solution of the acceptor side (mL).\n(§7) The efflux ratio (ER) of the polyphenol was assessed by calculating the Equation (4):ER = Papp (BA)/Papp (AB)(4) where, Papp (BA) is the apparent permeability coefficient of the polyphenol from basolateral to apical side and Papp (AB) is the apparent permeability coefficient from apical to basolateral side. ER is a measure of the relative contributions of active and passive transport to bi-direction flux across the cell monolayer."}, "[1]": {"experiment": "Caco-2 monolayer transport (bioavailability) study, AB and BA directions", "type": "in vitro ADME, Homo sapiens", "conditions": "human", "procedure": "as §1, §2, §3, §4, §5, §6, §7"}, "[2]": {"conditions": "AB experiment, acceptor side, S1 (15 mg/mL GSE)"}, "[3]": {"conditions": "AB experiment, acceptor side, S2 (22 mg/mL GSE)"}, "[4]": {"conditions": "AB experiment, donor side, S1 (15 mg/mL GSE)"}, "[5]": {"conditions": "AB experiment, donor side, S2 (22 mg/mL GSE)"}, "[6]": {"conditions": "BA experiment, acceptor side, S1 (15 mg/mL GSE)"}, "[7]": {"conditions": "BA experiment, acceptor side, S2 (22 mg/mL GSE)"}, "[8]": {"conditions": "BA experiment, donor side, S1 (15 mg/mL GSE)"}, "[9]": {"conditions": "BA experiment, donor side, S2 (22 mg/mL GSE)"}}, "note": "Values joined by “and” are separate entries in the source; they are usually repeats but may differ in a detail not shown here. Identical values can stand only once. Marks after values point to notes of the source that are not given here."}
{"smiles": "O=C(O)c1cc(O)c(O)c(O)c1", "note": "[GA, gallic acid]", "values": [{"measurement": "TE (%) transport efficiency", "setting": "Caco-2 cell monolayer; AB experiment, S1 (15 mg/mL GSE)", "result": "156 ± 26", "unit": "%"}, {"measurement": "TE (%) transport efficiency", "setting": "Caco-2 cell monolayer; AB experiment, S2 (22 mg/mL GSE)", "result": "164 ± 23", "unit": "%"}, {"measurement": "Basolateral Side 75 min", "setting": "Caco-2 cell monolayer; [2]", "result": "8.1 ± 0.9 ^b mg/L"}, {"measurement": "Basolateral Side 90 min", "setting": "Caco-2 cell monolayer; [2]", "result": "8.6 ± 0.9 ^b mg/L"}, {"measurement": "Basolateral Side 115 min", "setting": "Caco-2 cell monolayer; [2]", "result": "9.1 ± 0.9 ^b mg/L"}, {"measurement": "Basolateral Side 180 min", "setting": "Caco-2 cell monolayer; [2]", "result": "9.4 ± 0.9 ^b mg/L"}, {"measurement": "Basolateral Side 75 min", "setting": "Caco-2 cell monolayer; [3]", "result": "8.1 ± 0.9 ^b mg/L"}, {"measurement": "Basolateral Side 90 min", "setting": "Caco-2 cell monolayer; [3]", "result": "8.6 ± 0.9 ^b mg/L"}, {"measurement": "Basolateral Side 115 min", "setting": "Caco-2 cell monolayer; [3]", "result": "9.1 ± 0.9 ^b mg/L"}, {"measurement": "Basolateral Side 180 min", "setting": "Caco-2 cell monolayer; [3]", "result": "9.6 ± 0.9 ^b mg/L"}, {"measurement": "Apical Side 0 min", "setting": "Caco-2 cell monolayer; [4]", "result": "6.1 ± 0.5 ^a mg/L"}, {"measurement": "Apical Side 75 min", "setting": "Caco-2 cell monolayer; [4]", "result": "5.0 ± 0.5 ^b mg/L"}, {"measurement": "Apical Side 90 min", "setting": "Caco-2 cell monolayer; [4]", "result": "4.1 ± 0.4 ^c mg/L"}, {"measurement": "Apical Side 115 min", "setting": "Caco-2 cell monolayer; [4]", "result": "3.4 ± 0.4 ^c,d mg/L"}, {"measurement": "Apical Side 180 min", "setting": "Caco-2 cell monolayer; [4]", "result": "2.9 ± 0.3 ^d mg/L"}, {"measurement": "Apical Side 0 min", "setting": "Caco-2 cell monolayer; [5]", "result": "5.9 ± 0.3 ^a mg/L"}, {"measurement": "Apical Side 75 min", "setting": "Caco-2 cell monolayer; [5]", "result": "5.0 ± 0.3 ^b mg/L"}, {"measurement": "Apical Side 90 min", "setting": "Caco-2 cell monolayer; [5]", "result": "4.4 ± 0.3 ^c mg/L"}, {"measurement": "Apical Side 115 min", "setting": "Caco-2 cell monolayer; [5]", "result": "3.7 ± 0.3 ^d mg/L"}, {"measurement": "Apical Side 180 min", "setting": "Caco-2 cell monolayer; [5]", "result": "3.2 ± 0.3 ^d mg/L"}, {"measurement": "detection at the acceptor side", "setting": "Caco-2 cell monolayer; AB experiments, basolateral side", "result": "detected"}, {"measurement": "TE (%) transport efficiency", "setting": "Caco-2 cell monolayer; BA experiment, S1 (15 mg/mL GSE)", "result": "165 ± 6% and 164 ± 6%"}, {"measurement": "TE (%) transport efficiency", "setting": "Caco-2 cell monolayer; BA experiment, S2 (22 mg/mL GSE)", "result": "188 ± 4% and 188 ± 3%"}, {"measurement": "Apical Side 75 min", "setting": "Caco-2 cell monolayer; [6]", "result": "8.1 ± 0.3 ^a,b mg/L"}, {"measurement": "Apical Side 90 min", "setting": "Caco-2 cell monolayer; [6]", "result": "9.4 ± 0.2 ^b,c mg/L"}, {"measurement": "Apical Side 115 min", "setting": "Caco-2 cell monolayer; [6]", "result": "10.5 ± 0.3 ^c,d mg/L"}, {"measurement": "Apical Side 180 min", "setting": "Caco-2 cell monolayer; [6]", "result": "11.3 ± 0.3 ^d mg/L"}, {"measurement": "Apical Side 75 min", "setting": "Caco-2 cell monolayer; [7]", "result": "8.3 ± 0.5 ^a,b mg/L"}, {"measurement": "Apical Side 90 min", "setting": "Caco-2 cell monolayer; [7]", "result": "9.6 ± 0.5 ^b,c mg/L"}, {"measurement": "Apical Side 115 min", "setting": "Caco-2 cell monolayer; [7]", "result": "10.7 ± 0.6 ^c mg/L"}, {"measurement": "Apical Side 180 min", "setting": "Caco-2 cell monolayer; [7]", "result": "11.5 ± 0.7 ^c mg/L"}, {"measurement": "Basolateral Side 0 min", "setting": "Caco-2 cell monolayer; [8]", "result": "6.9 ± 0.3 ^a mg/L"}, {"measurement": "Basolateral Side 75 min", "setting": "Caco-2 cell monolayer; [8]", "result": "6.5 ± 0.3 ^b mg/L"}, {"measurement": "Basolateral Side 90 min", "setting": "Caco-2 cell monolayer; [8]", "result": "6.2 ± 0.3 ^c mg/L"}, {"measurement": "Basolateral Side 115 min", "setting": "Caco-2 cell monolayer; [8]", "result": "5.9 ± 0.3 ^d mg/L"}, {"measurement": "Basolateral Side 180 min", "setting": "Caco-2 cell monolayer; [8]", "result": "5.5 ± 0.2 ^c mg/L"}, {"measurement": "Basolateral Side 0 min", "setting": "Caco-2 cell monolayer; [9]", "result": "6.1 ± 0.4 ^a mg/L"}, {"measurement": "Basolateral Side 75 min", "setting": "Caco-2 cell monolayer; [9]", "result": "5.7 ± 0.4 ^b mg/L"}, {"measurement": "Basolateral Side 90 min", "setting": "Caco-2 cell monolayer; [9]", "result": "5.4 ± 0.4 ^c mg/L"}, {"measurement": "Basolateral Side 115 min", "setting": "Caco-2 cell monolayer; [9]", "result": "5.0 ± 0.4 ^d mg/L"}, {"measurement": "Basolateral Side 180 min", "setting": "Caco-2 cell monolayer; [9]", "result": "4.7 ± 0.3 ^d mg/L"}, {"measurement": "detection at the acceptor side", "setting": "Caco-2 cell monolayer; BA experiments, apical side", "result": "detected"}, {"measurement": "efflux ratio at 180 min, 15 mg/mL", "setting": "[1]; Caco-2, Papp (BA)/Papp (AB), S1 (15 mg/mL GSE), read-out: ER (efflux ratio)", "result": 0.7}, {"measurement": "efflux ratio at 180 min, 22 mg/mL", "setting": "[1]; Caco-2, Papp (BA)/Papp (AB), S2 (22 mg/mL GSE), read-out: ER (efflux ratio)", "result": 0.7}, {"measurement": "efflux ratio at 180 min", "setting": "[1]; Caco-2, text statement, S1 and S2", "result": "< 1"}, {"measurement": "Papp A→B at 180 min, 15 mg/mL", "setting": "[1]; Caco-2, apical to basolateral, S1 (15 mg/mL GSE)", "result": "1690 ± 70", "unit": "×10⁻⁶ cm/s"}, {"measurement": "Papp A→B at 180 min, 22 mg/mL", "setting": "[1]; Caco-2, apical to basolateral, S2 (22 mg/mL GSE)", "result": "1800 ± 200", "unit": "×10⁻⁶ cm/s"}, {"measurement": "Papp B→A at 180 min, 15 mg/mL", "setting": "[1]; Caco-2, basolateral to apical, S1 (15 mg/mL GSE)", "result": "1150 ± 60", "unit": "×10⁻⁶ cm/s"}, {"measurement": "Papp B→A at 180 min, 22 mg/mL", "setting": "[1]; Caco-2, basolateral to apical, S2 (22 mg/mL GSE)", "result": "1290 ± 5", "unit": "×10⁻⁶ cm/s"}]}
